Experimental data as given in ChEMBL document CHEMBL4706760, “Novel Heteroaryl Compounds as Splicing Modulators for Modulating Splicing of mRNA and Uses Thereof for Treating Diseases” (ACS Med Chem Lett, 2021).

Columns and labels:
Type in all cases: subcellular
[1] = Splicing modulation activity at wild type Exon 12/12b/12c/13 mRNA in human cell lysates assessed as induction of poison exon inclusion in RNA measured cells pretreated for 24 hrs followed by first 16 hrs of incubation treated with cycloheximide for 8 hrs by qPCR
[2] = Splicing modulation activity at Exon 12c mRNA in human cell lysates assessed as induction of poison exon inclusion in RNA measured cells pretreated for 24 hrs followed by first 16 hrs of incubation treated with cycloheximide for 8 hrs by qPCR
[3] = Splicing modulation activity at wild type Exon 7/7b/7c/8 mRNA in human cell lysates assessed as induction of poison exon inclusion in RNA measured cells pretreated for 24 hrs followed by first 16 hrs of incubation treated with cycloheximide for 8 hrs by qPCR
[4] = Splicing modulation activity at Exon E7c mRNA in human cell lysates assessed as induction of poison exon inclusion in RNA measured cells pretreated for 24 hrs followed by first 16 hrs of incubation treated with cycloheximide for 8 hrs by qPCR
[5] = Splicing modulation activity at Exon E7b mRNA in human cell lysates assessed as induction of poison exon inclusion in RNA measured cells pretreated for 24 hrs followed by first 16 hrs of incubation treated with cycloheximide for 8 hrs by qPCR

Row | Compound | IC50 [1] [nM] | EC50 [2] [nM] | IC50 [3] [nM] | EC50 [4] [nM] | EC50 [5] [nM]
1 | CN(c1ccc(-c2cc(F)c(-c3ccn(C)c(=O)c3)cc2O)nn1)[C@H]1C[C@]2(C)CCC[C@](C)(C1)N2 | 116 | 238 |  |  | 
2 | CNC(=O)/C=C/c1cc(O)c(-c2ccc(N(C)[C@H]3C[C@]4(C)CCC[C@](C)(C3)N4)nn2)cc1F | 162 | 126 | 99.1 | 310 | 41
3 | CN(c1ccc(-c2cc(F)c(-c3ccn(CF)c(=O)c3)cc2O)nn1)[C@H]1C[C@]2(C)CCC[C@](C)(C1)N2 | 94.7 | 92.9 | 93.9 | 293 | 88
4 | CN(c1ccc(-c2cc(F)c(-c3cn[nH]c3)cc2O)nn1)[C@@H]1C[C@H]2CCC[C@@H](C1)N2 |  |  | 46 | 162 | 168
5 | CNC(=O)c1ccc2cc(-c3ccc(N(C)[C@H]4C[C@]5(C)CCC[C@](C)(C4)N5)nn3)c(O)cc2n1 | 54 | 46.1 | 27.6 | 60.2 | 9.3
6 | CN(c1ncc(-c2ccc(-c3cn[nH]c3)cc2O)nn1)[C@@H]1C[C@H]2CC[C@@H](C1)N2 |  |  | 150 | 294 | 39.6
